The values that follow come from ChEMBL document CHEMBL5154647, “Discovery of seneciobipyrrolidine derivatives for the amelioration of glucose homeostasis disorders through 4E-BP1/Akt/AMPK signaling activation” (Eur J Med Chem, 2022).

Molecules are shown by their SMILES.

The test system of series [1] is L6. Briefly: Induction of glucose uptake in rat L6 myoblasts at 3 uM measured after 2 hrs by liquid scintillation counter. It is filed as functional.
For series [2], the system named is L6. Briefly: Induction of glucose uptake in rat L6 myoblasts assessed as 2-DG concentration at 25 uM preincubated for 3 hrs and in presence of 2-deoxyglucose measured after 1 hrs by DNTB reagent based colorimetric assay. The format is functional. As to conditions: time 4 hrs.
Series [3] has as its system L6. Briefly: Induction of glucose uptake in rat L6 myoblasts at 20 uM measured after 2 hrs by liquid scintillation counter. It is filed as functional.
A short description of series [4]: Cmax in Sprague-Dawley rat at 20 mg/kg, po measured upto 10 hrs by LC/MS/MS analysis. It is filed as ADME, organism-based. Also on record: time < 10 hrs, dose 20 mg/kg, route po. As to conditions: in vivo.
A short description of series [5]: Half life in Sprague-Dawley rat at 20 mg/kg, po measured upto 10 hrs by LC/MS/MS analysis. The conditions noted are these: in vivo. It is filed as ADME, organism-based.
Series [6] in a line: AUC (0 to t) in Sprague-Dawley rat at 20 mg/kg, po measured upto 10 hrs by LC/MS/MS analysis. The format is ADME, organism-based. Also on record: time < 10 hrs, dose 20 mg/kg, route po. The conditions noted are these: in vivo.
Series [7] is described as follows: AUC (0 to t) in Sprague-Dawley rat at 5 mg/kg, iv measured upto 24 hrs by LC/MS/MS analysis. The conditions noted are these: in vivo. It is filed as ADME, organism-based. Set-up: dose 5 mg/kg, time < 24 hrs, route iv.
Series [8] in a line: Oral bioavailability in Sprague-Dawley rat at 20 mg/kg measured upto 10 hrs by LC/MS/MS analysis. The format is ADME, organism-based. As to conditions: in vivo.
Series [9] is described as follows: Half life in Sprague-Dawley rat at 5 mg/kg, iv measured upto 24 hrs by LC/MS/MS analysis. It is filed as ADME, organism-based. As to conditions: in vivo.
Series [10] can be described thus: Tmax in Sprague-Dawley rat at 20 mg/kg, po measured upto 10 hrs by LC/MS/MS analysis. As to conditions: in vivo. The format is ADME, organism-based.
The nature of series [11]: Cmax in Sprague-Dawley rat at 5 mg/kg, iv measured upto 24 hrs by LC/MS/MS analysis. The format is ADME, organism-based. As to conditions: in vivo. Set-up: dose 5 mg/kg, time < 24 hrs, route iv.
Series [12] can be described thus: Microsomal stability in mouse liver microsomes assessed as half life preincubated with NADPH measured upto 60 mins by LC-MS analysis. It is filed as ADME, Microsome. For orientation: Microsomes from liver hold many membrane-bound enzymes, among them those of drug oxidation.
The nature of series [13]: Microsomal stability in monkey liver microsomes assessed as half life preincubated with NADPH measured upto 60 mins by LC-MS analysis. The format is ADME, Macaca mulatta, Microsome. The conditions noted are these: rhesus monkey.
The test system of series [14] is L6. Briefly: Induction of glucose uptake in rat L6 myoblasts preincubated for 3 hrs with compound and in presence of 2-deoxyglucose measured after 1 hrs by DNTB reagent based colorimetric assay. The format is functional, cell-based.

Take `COc1cc(C[C@H]2C(=O)OC[C@@H]2Cc2ccc(OC)c(OC)c2)ccc1O` [ARCTIGENIN]: the Activity in the series on L6 [1] was 146%; in the series with L6 [2] it was 23.5 pmol/µL.

Turning to `COc1ccc(N2CC[C@@H]3[C@@H]4CCCN4c4ccc(OC)cc4[C@@H]32)cc1` (racemic), the Activity with L6 [3] turned out to be 46.2%.

Consider `COc1ccc2c(c1)[C@H]1[C@H](CCN1CCc1ccccc1)[C@H]1CCCN21` (racemic), for which the Activity in the series on L6 [3] stood at 55.9%; in the series on L6 [2], 23.4 pmol/µL.

In the case of `Cc1ccc(CN2CC[C@@H]3[C@H]4CCCN4c4ccc(C)cc4[C@@H]32)cc1` (racemic), the Activity worked out at 149.2% in the series with L6 [3] and 59.6 pmol/µL in the series with L6 [2].

As for `COc1ccc2c(c1)[C@H]1[C@H](CCN1C(=O)Cc1ccc(C)cc1)[C@H]1CCCN21` (racemic), the Activity in the series on L6 [3] came out at 101.2%.

In the case of `COc1ccc2c(c1)[C@H]1[C@H](CCN1Cc1ccc3c(ccn3C)c1)[C@H]1CCCN21` (racemic), the Cmax in [4] came to 307 ng/mL; in [11], 981 ng/mL. Besides, the half-life in [5] was 11.9 h; in series [9], 7.6 h. Moreover, the Activity in the series with L6 [3] came to 68.7%; with L6 [2], 23.4 pmol/µL. For the same molecule, the AUC(0-t) at 10 h in series [6] was found to be 561 ng·h/mL. The molecule further registered an AUC(0-t) at 24 h in [7] of 1480 ng·h/mL. Further, the bioavailability in [8] stood at 9.5%. Moreover, the Tmax in [10] came out at 0.4 h.

As for `Cc1ccc(N2CC[C@@H]3[C@H]4CCCN4c4ccc(C)cc4[C@@H]32)cc1` (racemic), the Activity in the series on L6 [3] worked out at 130.9%; with L6 [2], 13.1 pmol/µL.

`Cc1ccc(N2CC[C@@H]3[C@@H]4CCCN4c4ccc(C)cc4[C@@H]32)cc1` (racemic) had an Activity in the series on L6 [3] of 63.5%.

`COc1ccc(N2CC[C@@H]3[C@@H]4CCCN4c4cc(O)c(OC)cc4[C@@H]32)cc1O` (racemic): in the series on L6 [3], the Activity came to 70.6%.

Turning to `COc1ccc2c(c1)[C@H]1[C@H](CCN1C(=O)c1ccc(O)cc1)[C@H]1CCCN21` (racemic), in the series with L6 [3], the Activity amounted to 86.7%.

For the molecule `COc1ccc2c(c1)[C@H]1[C@H](CCN1CCc1ccc(C)cc1)[C@H]1CCCN21` (racemic), the Activity with L6 [3] worked out at 86.3%.

Regarding `COc1ccc2c(c1)[C@H]1[C@H](CCN1Cc1ccc(C)cc1)CN2C` (racemic), the Activity in the series on L6 [3] is listed as 80.6%.

In the case of `COc1ccc2c(c1)[C@H]1[C@H](CCN1C(=O)c1ccc(C#N)cc1)[C@H]1CCCN21` (racemic), the Activity was 71.4% in the series with L6 [3] and 5.5 pmol/µL in the series on L6 [2].

Molecule `COc1ccc(N2CC[C@@H]3[C@H]4CCCN4c4ccc(OC)cc4[C@@H]32)cc1` (racemic) showed an Activity in the series with L6 [3] of 142.6%.

`Cc1cccc(N2CC[C@@H]3[C@H]4CCCN4c4cc(C)ccc4[C@@H]32)c1` (racemic) displayed an Activity in the series on L6 [3] of 76.4%.

Take `NC(=O)Cc1ccc(N2CC[C@@H]3[C@H]4CCCN4c4ccc(CC(N)=O)cc4[C@@H]32)cc1` (racemic): the values for the half-life in series [12] and in series [13] were 3.12 h and 0.578 h, respectively.

Regarding `COc1ccc2c(c1)[C@H]1[C@H](CCN1Cc1ccc(Cl)cc1)[C@H]1CCCN21` (racemic), the Activity in the series on L6 [3] is listed as 22.3%.

In the series with L6 [3], `COc1ccccc1N1CC[C@@H]2[C@H]3CCCN3c3c(OC)cccc3[C@@H]21` (racemic) had an Activity of 109.5%.

With `COc1ccc2c(c1)[C@H]1[C@H](CCN1C(=O)Cc1ccc(Cl)cc1)[C@H]1CCCN21` (racemic), the values for the Activity in the series on L6 [3] and with L6 [2] were 98.1% and 33.1 pmol/µL, respectively.

Turning to `COc1ccc2c(c1)[C@H]1[C@H](CCN1C(=O)c1ccc3ccccc3c1)[C@H]1CCCN21` (racemic), the Activity in the series with L6 [3] was found to be 172.4%; with L6 [2], 52.9 pmol/µL. In the series with L6 [14], the EC50 is 34.5 µM.

Take `Cc1ccc(CN2CC[C@@H]3[C@H]4CCCN4c4ccccc4[C@@H]32)cc1` (racemic): the Activity in the series on L6 [3] is recorded as 155.4%.

The molecule `Fc1ccc(N2CC[C@@H]3[C@@H]4CCCN4c4ccc(F)cc4[C@@H]32)cc1` (racemic) came in with an Activity with L6 [3] of 58.3%.

Regarding `COc1ccc(CN2CC[C@@H]3[C@H]4CCCN4c4ccc(OC)cc4[C@@H]32)cc1` (racemic), the Activity with L6 [3] is reported as 15%.

Molecule `COc1cc2c(cc1OC)N1CCC[C@@H]1[C@H]1CCN(Cc3ccc(C)cc3)[C@@H]21` (racemic) registered an Activity in the series on L6 [3] of 34.2%.

Regarding `COc1ccc2c(c1)[C@H]1[C@H](CCN1Cc1ccccc1)[C@H]1CCCN21` (racemic), the Activity in the series on L6 [3] amounted to 66.4%; in the series with L6 [2], 51.6 pmol/µL.

In turn, `COc1cccc(N2CC[C@@H]3[C@H]4CCCN4c4cc(OC)ccc4[C@@H]32)c1` (racemic) displayed an Activity in the series with L6 [3] of 22.4%.

The Cmax is the peak of the concentration-time curve. As a reminder, the half-life is the time needed for the level to fall by half in the phase considered. One may read the AUC(0-t) as exposure summed from dosing to a finite time, without extrapolation to infinity. As a reminder, the bioavailability is the share of a dose that reaches the circulation, judged against a reference dose that is usually intravenous. Usually Tmax stands for the time at which the peak concentration occurs. As usually defined, the EC50 is the concentration that produces a half-maximal response.
